# Like-named read-outs stand apart in the source and are kept apart here.
# How the values were obtained:
# [1] = tested on: Francisella tularensis subspecies Novicida; assay type: cell-based
# Francisella philomiragia = assay type: cell-based
# bacterial growth [2] = assay type: cell-based
# lawn of E. coli = assay type: cell-based; settings: 1.0 tet/0.78 Cohex and 2.0 tet/1.6 mg Cohex disk pairings, overnight at 37° C.
# [3] = mouse, in vivo
# bacterial growth [4] = settings: cited from earlier work
# [5] = biological target: CorA of Salmonella typhimurium (Salmonella typhimurium, UniProt P0A2R8); settings: cited from earlier work
# [6] = biological target: CorA of Methanococcus jannaschii (Methanocaldococcus jannaschii, UniProt Q58439); settings: cited from earlier work
# [7] = tested on: S. typhimurium strain in which CorA was the only functional Mg2+ transporter; settings: cited from earlier work
# MgtB Mg transporter = MgtB Mg transporter (Salmonella typhimurium, UniProt P22036); settings: cited from earlier work
# TolC (E. coli) = TolC (E. coli) (Escherichia coli, UniProt P02930); settings: isothermal titration calorimetry; cited from earlier work
# Chain of TolC (E. coli) (P02930 23-493): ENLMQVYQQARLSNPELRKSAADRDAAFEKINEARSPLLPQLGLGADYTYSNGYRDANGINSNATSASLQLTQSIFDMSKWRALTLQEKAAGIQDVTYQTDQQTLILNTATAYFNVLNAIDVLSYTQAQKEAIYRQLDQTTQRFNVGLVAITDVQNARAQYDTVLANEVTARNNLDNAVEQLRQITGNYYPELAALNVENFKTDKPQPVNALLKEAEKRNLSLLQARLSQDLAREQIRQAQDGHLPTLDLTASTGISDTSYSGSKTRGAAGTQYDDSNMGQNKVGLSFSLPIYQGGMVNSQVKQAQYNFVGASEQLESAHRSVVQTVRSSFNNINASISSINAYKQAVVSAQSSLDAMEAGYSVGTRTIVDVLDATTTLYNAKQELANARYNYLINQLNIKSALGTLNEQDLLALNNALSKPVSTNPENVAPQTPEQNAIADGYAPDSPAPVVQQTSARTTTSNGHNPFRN
# Chain of CorA of Salmonella typhimurium (P0A2R8 whole entry): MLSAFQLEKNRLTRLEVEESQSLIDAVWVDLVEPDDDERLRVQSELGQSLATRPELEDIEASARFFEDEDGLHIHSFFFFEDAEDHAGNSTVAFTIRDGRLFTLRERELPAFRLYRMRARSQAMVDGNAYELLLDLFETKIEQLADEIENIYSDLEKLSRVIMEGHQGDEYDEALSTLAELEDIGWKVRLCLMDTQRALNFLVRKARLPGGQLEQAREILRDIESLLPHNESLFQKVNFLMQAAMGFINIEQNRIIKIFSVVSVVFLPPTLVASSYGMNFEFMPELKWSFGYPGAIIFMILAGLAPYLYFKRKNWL
# Chain of MgtB Mg transporter (P22036 whole entry): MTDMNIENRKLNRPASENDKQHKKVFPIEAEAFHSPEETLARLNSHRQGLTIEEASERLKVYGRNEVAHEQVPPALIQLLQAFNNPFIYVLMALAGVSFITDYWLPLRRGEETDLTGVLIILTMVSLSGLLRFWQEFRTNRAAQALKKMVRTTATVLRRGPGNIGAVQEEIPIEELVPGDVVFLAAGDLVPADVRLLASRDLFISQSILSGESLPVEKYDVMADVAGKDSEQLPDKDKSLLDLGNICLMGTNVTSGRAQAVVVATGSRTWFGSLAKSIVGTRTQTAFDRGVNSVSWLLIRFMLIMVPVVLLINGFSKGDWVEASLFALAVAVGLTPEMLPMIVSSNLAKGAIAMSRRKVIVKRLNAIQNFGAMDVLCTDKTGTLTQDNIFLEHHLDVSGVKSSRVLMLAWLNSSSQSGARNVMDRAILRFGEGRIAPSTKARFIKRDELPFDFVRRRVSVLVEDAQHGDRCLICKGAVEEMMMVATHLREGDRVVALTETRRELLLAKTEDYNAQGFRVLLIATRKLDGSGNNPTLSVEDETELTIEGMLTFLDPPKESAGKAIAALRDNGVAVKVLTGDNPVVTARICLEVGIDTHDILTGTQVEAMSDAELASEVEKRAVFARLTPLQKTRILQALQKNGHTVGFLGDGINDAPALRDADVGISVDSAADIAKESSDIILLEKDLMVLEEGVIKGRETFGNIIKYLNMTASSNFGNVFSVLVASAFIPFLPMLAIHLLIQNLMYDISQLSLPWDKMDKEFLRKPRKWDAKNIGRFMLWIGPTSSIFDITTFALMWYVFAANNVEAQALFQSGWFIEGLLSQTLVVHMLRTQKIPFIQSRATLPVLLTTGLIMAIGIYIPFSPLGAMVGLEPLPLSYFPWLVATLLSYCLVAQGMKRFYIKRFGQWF
# Chain of CorA of Methanococcus jannaschii (Q58439 whole entry): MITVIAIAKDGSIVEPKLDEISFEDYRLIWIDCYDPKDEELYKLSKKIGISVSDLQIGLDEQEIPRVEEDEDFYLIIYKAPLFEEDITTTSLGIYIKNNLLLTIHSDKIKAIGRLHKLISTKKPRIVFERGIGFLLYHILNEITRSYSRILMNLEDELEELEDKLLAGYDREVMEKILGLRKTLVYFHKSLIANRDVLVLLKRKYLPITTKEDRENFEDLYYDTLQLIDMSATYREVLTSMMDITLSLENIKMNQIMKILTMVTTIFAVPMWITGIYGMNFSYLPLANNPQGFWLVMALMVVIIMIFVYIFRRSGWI
substance,measurement,setting,value
hexamminecobalt (III) chloride [Cohex],kind of inhibition of the bacterial growth,[1],bacteriostatic rather than bacteriocidal
same,kind of inhibition of the bacterial growth,Francisella philomiragia,bacteriostatic rather than bacteriocidal
same,effect of the presence of Cohex on potency of the antibiotic drugs,bacterial growth [2],increased the potency of the drugs up to about an order of magnitude
same,effect on bacterial growth,bacterial growth [2],no effect on bacterial growth
same,"zone of inhibition, interaction with tetracycline",lawn of E. coli,synergistic effect
same,CC50,BHK cells,~3200 µM
same,toxicity to mice,[3],not to be highly toxic
same,effect on bacterial growth,bacterial growth [4],prevents bacterial growth at micromolar concentrations
same,inhibition of 63Ni2+ uptake,[5],inhibited
same,Ki,"[5]; corresponding to the IC50, species not given",0.5 µM
same,inhibition of 63Ni2+ uptake,[6],inhibited
same,inhibition of growth,[7],inhibited the growth
same,inhibition of alternate pathways of Mg2+ transport,MgtB Mg transporter,does not inhibit
same,Cohex ions bound per trimeric TolC,TolC (E. coli),~1

# — US20100004187A1 (priority 2008, published 2010)
